Columns and labels:
Assay type in all cases: in vivo
[1] = tested on: Triticum aestivum (TRZAS); assay: Post-emergence crop plant compatibility, greenhouse pot test; conditions: Triticum aestivum, in vivo
Procedure, shortened: (§1)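 Visual % damage scores were taken roughly 3 weeks after treatment, relative to untreated plants, where 100% means plants died and 0% means no difference. Plants received aqueous sprays (WP or EC, 0.5% additive, 600 l/ha) on green parts at the one-leaf stage, 2–3 weeks after sowing.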

[2] = tested on: Oryza sativa (ORYSA); assay: as above; conditions: Oryza sativa, in vivo
Procedure, shortened: as §1

[3] = tested on: Zea mays (ZEAMX); assay: as above; conditions: Zea mays, in vivo
Procedure, shortened: as §1

[4] = tested on: crop plants; assay: Post-emergence crop plant compatibility, summary statements over several crops; conditions: 5 g or less per hectare, ORYSA, ZEAMX, TRZAS
Experimental: (§2) Seeds of monocotyledonous and dicotyledonous weeds and crop plants were placed in sandy loam in plastic or wood-fibre pots, covered with soil and cultivated in a greenhouse under controlled growth conditions. 2 to 3 weeks after sowing, the test plants were treated at the one-leaf stage. The compounds of the invention, formulated in the form of wettable powders (WP) or as emulsion concentrates (EC), were then sprayed onto the green parts of the plants as aqueous suspension or emulsion with addition of 0.5% additive at a water application rate of 600 l/ha (converted). After the test plants had been kept in the greenhouse under optimum growth conditions for about 3 weeks, the activity of the preparations was rated visually in comparison to untreated controls. For example, 100% activity=the plants have died, 0% activity=like control plants.
The observed effects on selected crop plants are reported here in comparison to the untreated controls (values in %).

[5] = tested on: Abutilon theophrasti (ABUTH); assay: Post-emergence herbicidal action, greenhouse pot test; conditions: for pest or weed control at 5 g/ha / pest or weed control at 20 g/ha: Abutilon theophrasti, 504 h; for pest or weed control at 5 g/ha: read-out: Post-emergence effect at 5 g/ha against ABUTH in %; for pest or weed control at 20 g/ha: read-out: Post-emergence effect at 20 g/ha against ABUTH in %
Procedure, shortened: (§3)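 Foliar spray on one-leaf-stage pot plants in sandy loam (WP or EC, 0.5% additive, 600 l/ha water), then about 3 weeks under optimum greenhouse conditions before visual scoring on a 0–100% scale against untreated controls, where 100% means plant death.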

[6] = tested on: Pharbitis purpurea (PHBPU); assay: as above; conditions: for pest or weed control at 5 g/ha / pest or weed control at 20 g/ha: Ipomoea purpurea, 504 h; for pest or weed control at 5 g/ha: read-out: Post-emergence effect at 5 g/ha against PHBPU in %; for pest or weed control at 20 g/ha: read-out: Post-emergence effect at 20 g/ha against PHBPU in %
Procedure, shortened: as §3

[7] = tested on: Tripleurospermum inodorum (MATIN); assay: as above; conditions: Tripleurospermum inodorum, 504 h, 20 g/ha, read-out: Post-emergence effect at 20 g/ha against MATIN in %
Procedure, shortened: as §3

[8] = tested on: Polygonum convolvulus (POLCO); assay: as above; conditions: Fallopia convolvulus, 504 h; for pest or weed control at 5 g/ha: read-out: Post-emergence effect at 5 g/ha against POLCO in %; for pest or weed control at 20 g/ha: read-out: Post-emergence effect at 20 g/ha against POLCO in %
Procedure, shortened: as §3

[9] = tested on: Veronica persica (VERPE); assay: as above; conditions: for pest or weed control at 5 g/ha / pest or weed control at 20 g/ha: Veronica persica, 504 h; for pest or weed control at 5 g/ha: read-out: Post-emergence effect at 5 g/ha against VERPE in %; for pest or weed control at 20 g/ha: read-out: Post-emergence effect at 20 g/ha against VERPE in %
Procedure, shortened: as §3

[10] = tested on: Setaria viridis (SETVI); assay: as above; conditions: for pest or weed control at 5 g/ha / pest or weed control at 20 g/ha: Setaria viridis, 504 h; for pest or weed control at 5 g/ha: read-out: Post-emergence effect at 5 g/ha against SETVI in %; for pest or weed control at 20 g/ha: read-out: Post-emergence effect at 20 g/ha against SETVI in %
Procedure, shortened: as §3

[11] = tested on: Alopecurus myosuroides (ALOMY); assay: as above; conditions: for pest or weed control at 20 g/ha: Alopecurus myosuroides, 504 h, read-out: Post-emergence effect at 20 g/ha against ALOMY in %; for ALOMY (efficacy in %): Table B1 comparison, application rate 20 g/ha
Procedure, shortened: as §3

[12] = tested on: Viola tricolor (VIOTR); assay: as above; conditions: for pest or weed control at 20 g/ha: Viola tricolor, 504 h, read-out: Post-emergence effect at 20 g/ha against VIOTR in %
Procedure, shortened: as §3

[13] = tested on: Amaranthus retroflexus (AMARE); assay: as above; conditions: Amaranthus retroflexus, 504 h; for pest or weed control at 1.25 g/ha: read-out: Post-emergence effect at 1.25 g/ha against AMARE in %; for pest or weed control at 5 g/ha: read-out: Post-emergence effect at 5 g/ha against AMARE in %; for pest or weed control at 20 g/ha: read-out: Post-emergence effect at 20 g/ha against AMARE in %
Procedure, shortened: as §3

[14] = tested on: Digitaria sanguinalis (DIGSA); assay: as above
Procedure, shortened: as §3

[15] = tested on: Echinochloa crus-galli (ECHCG); assay: as above; conditions: for pest or weed control at 20 g/ha: Echinochloa crus-galli, 504 h, read-out: Post-emergence effect at 20 g/ha against ECHCG in %; for ECHCG (efficacy in %): Table B2 comparison, application rate 1.25 g/ha
Procedure, shortened: as §3

[16] = tested on: harmful plants; assay: Post-emergence herbicidal action, summary statements over several weeds; conditions: 20 g or less per hectare, ALOMY, ECHCG, AVEFA, VERPE
Experimental: as §2

[17] = tested on: Avena fatura (AVEFA); assay: Comparative post-emergence herbicidal action, greenhouse pot test; conditions: Table B3 comparison, application rate 20 g/ha
Experimental: as §2
Tables B1-B5 below show the effects of inventive compounds (I.7-12, I.7-14, I.7-16) that have been obtained by the test method specified above on various harmful plants at an application rate corresponding to 20 g/ha or lower by comparison with structurally similar compounds known from the literature (“a-27”, “a-29”, disclosed in WO2002/098227).

[18] = tested on: Glycine max (GLXMA); assay: Post-emergence crop plant compatibility, greenhouse pot test; conditions: Glycine max, in vivo
Procedure, shortened: as §1

SMILES	Post-emergence effect at 1.25 g/ha against TRZAS in % [1] [%]	Post-emergence effect at 20 g/ha against TRZAS in % [1] [%]	Post-emergence effect at 1.25 g/ha against ORYSA in % [2] [%]	Post-emergence effect at 5 g/ha against ORYSA in % [2] [%]	Post-emergence effect at 1.25 g/ha against ZEAMX in % [3] [%]	pest or weed control at 5 g/ha [5] [%]	pest or weed control at 20 g/ha [5] [%]	pest or weed control at 5 g/ha [6] [%]	pest or weed control at 20 g/ha [6] [%]	pest or weed control at 20 g/ha [7] [%]	pest or weed control at 5 g/ha [8] [%]	pest or weed control at 20 g/ha [8] [%]	pest or weed control at 5 g/ha [9] [%]	pest or weed control at 20 g/ha [9] [%]	pest or weed control at 5 g/ha [10] [%]	pest or weed control at 20 g/ha [10] [%]	pest or weed control at 20 g/ha [11] [%]	ALOMY (efficacy in %) [11] [%]	pest or weed control at 20 g/ha [12] [%]	pest or weed control at 1.25 g/ha [13] [%]	further results
Cn1c(C(F)(F)F)cc(=O)n(-c2cc(Oc3ccccc3OCC(=O)OCC3CCCC3)c(Cl)cc2F)c1=O [I.7-12]	10	20	0	20	10	100	100	100	100	100	80	100	100	100	100	100	100	100	100	100	Post-emergence effect at 5 g/ha against ZEAMX in % [3]: 20%; compatibility with crop plants by comparison with a-27, a-29 or a generically encompassed structure (WO2002/098227) [4]: distinctly improved compatibility; Post-emergence effect at 1.25 g/ha against ABUTH in % ([5]; 1.25 g/ha): 90%; Post-emergence effect at 1.25 g/ha against PHBPU in % ([6]; 1.25 g/ha): 80%; Post-emergence effect at 1.25 g/ha against VERPE in % ([9]; 1.25 g/ha): 90%; Post-emergence effect at 1.25 g/ha against SETVI in % ([10]; 1.25 g/ha): 80%; Post-emergence effect at 1.25 g/ha against VIOTR in % ([12]; 1.25 g/ha): 100%; Post-emergence effect at 5 g/ha against VIOTR in % ([12]; 5 g/ha): 100%; pest or weed control at 5 g/ha [13]: 100%; pest or weed control at 20 g/ha [13]: 100%; Post-emergence effect at 1.25 g/ha against DIGSA in % ([14]; 1.25 g/ha): 100%; Post-emergence effect at 5 g/ha against DIGSA in % ([14]; 5 g/ha): 100%; Post-emergence effect at 20 g/ha against DIGSA in % ([14]; 20 g/ha): 100%; Post-emergence effect at 5 g/ha against ECHCG in % ([15]; 5 g/ha): 90%; pest or weed control at 20 g/ha [15]: 100%; ECHCG (efficacy in %) [15]: 60%; herbicidal efficacy by comparison with a-27, a-29 or a generically encompassed structure (WO2002/098227) [16]: distinctly improved herbicidal efficacy; AVEFA (efficacy in %) [17]: 70%
Cn1c(C(F)(F)F)cc(=O)n(-c2cc(Oc3ccccc3OCC(=O)OCC3CC3)c(Br)cc2F)c1=O [I.8-1, Cyclopropylmethyl (2-{2-bromo-4-fluoro-5-[3-methyl-2,6-dioxo-4-(trifluoromethyl)-3,6-dihydropyrimidin-1(2H)-yl]phenoxy}phenoxy)acetate]	0	0	0	0	0	100	100	80	100	100	100	100	100	100	100	100	100		100	100	Post-emergence effect at 20 g/ha against ORYSA in % [2]: 20%; Post-emergence effect at 1.25 g/ha against GLXMA in % [18]: 0%; pest or weed control at 5 g/ha [13]: 100%; pest or weed control at 20 g/ha [13]: 100%; pest or weed control at 20 g/ha [15]: 100%
Cn1c(C(F)(F)F)cc(=O)n(-c2cc(Oc3ccccc3OCC(=O)OC3CCCC3)c(Cl)cc2F)c1=O [a-27, reference compound]																		80			ECHCG (efficacy in %) [15]: 30%; AVEFA (efficacy in %) [17]: 40%

Reference: patent US20260138958A1, “SUBSTITUTED N-PHENYLURACILS AND SALTS THEREOF, AND USE THEREOF AS HERBICIDAL ACTIVE SUBSTANCES” (Bayer Aktiengesellschaft, priority 2022, published 2026)
